Experimental findings from ChEMBL document CHEMBL1158321, “In vitro anti-HIV activity of biflavonoids isolated from Rhus succedanea and Garcinia multiflora” (J Nat Prod, 1997) are described below.

Each structure is given as a SMILES string.

The target in assay [1] is Human immunodeficiency virus type 1 reverse transcriptase (Human immunodeficiency virus 1, UniProt Q72547). In words: (§1) Inhibition of HIV1 recombinant reverse transcriptase p66/p51 expressed in Escherichia coli.
The target in assay [2] is Human immunodeficiency virus type 1 reverse transcriptase (Human immunodeficiency virus 1) (UniProt Q72547). In words: Inhibition of HIV1 recombinant reverse transcriptase p66/p51 expressed in Escherichia coli at 200 ug/mL.
The subject of assay [3] is Human immunodeficiency virus 1. In words: Antiviral activity against HIV1 LAV-1 in PHA-stimulated human PBMC after 6 days. It is filed as functional, organism-based. The settings on record: Human immunodeficiency virus 1, LAV-1, 144 h.
The test system of assay [4] is PBMC. In words: Cytotoxicity against uninfected PHA-stimulated human PBMC assessed as thymidine incorporation after 24 hrs […]. It counts as cell-based.
A short description of assay [5]: Selectivity index, ratio of IC50 for human PBMC to EC50 for HIV1 LAV-1.
Assay [6] deals with Human immunodeficiency virus type 1 reverse transcriptase (Human immunodeficiency virus 1) (UniProt Q72547). The assay is described as §1. On the set-up: concentration or dose not given beside the values. The settings on record: concentration not given here.

For orientation: IC50 means the concentration at which inhibition is half-maximal. As a reminder, the inhibition is the drop in the measured response relative to a control, in per cent. Regarding `O=C1C[C@@H](c2ccc(O)c(O)c2)Oc2c1c(O)cc(O)c2[C@H]1C(=O)c2c(O)cc(O)cc2O[C@@H]1c1ccc(O)cc1`, the IC50 in assay [1] turned out to be 170 µM. Also, the inhibition in assay [2] is 96%.
In general, EC50 refers to the concentration needed to bring the measured effect to its halfway point. As to `O=C1C[C@@H](c2ccc(O)cc2)Oc2c1c(O)cc(O)c2[C@H]1C(=O)c2c(O)cc(O)cc2O[C@@H]1c1ccc(O)cc1`, the half-inhibitory concentration (IC50) in assay [1] came out at 236 µM; in assay [4] it was 88 µM. Also, the inhibition in assay [2] was determined as 86%. A half-maximal effect in assay [3] (EC50) was put at 38 µM. The “Selectivity Index” value in assay [5] is recorded as 2.3.
Take `COc1ccc(-c2cc(=O)c3c(OC)cc(OC)c([C@@H]4C(=O)c5c(OC)cc(OC)cc5O[C@H]4c4ccc(OC)cc4)c3o2)cc1`: the inhibition in assay [6] is less than 30%; in assay [2], 0%.
As for `COc1ccc([C@@H]2CC(=O)c3c(OC)cc(OC)c([C@H]4C(=O)c5c(OC)cc(OC)cc5O[C@@H]4c4ccc(OC)cc4)c3O2)cc1`, the inhibition in assay [2] stood at 0%.
Regarding `COc1ccc([C@@H]2Oc3cc(OC)cc(OC)c3C(=O)[C@H]2c2c(OC)cc(OC)c3c(=O)cc(-c4ccc(OC)c(OC)c4)oc23)cc1`, the inhibition in assay [6] was less than 30%; in assay [2], 0%.
On to `Cc1ccc([C@@H]2CC(=O)c3c(cc(O)c(-c4c(O)cc(O)c5c4O[C@H](c4ccc(O)cc4)CC5=O)c3O)O2)cc1`, for which the inhibition is less than 30% in assay [6] and 14.1% in assay [2].
With `O=C1C[C@@H](c2ccc(O)cc2)Oc2c1c(O)cc(O[C@@H]1O[C@H](CO)[C@@H](O)[C@H](O)[C@H]1O)c2[C@H]1C(=O)c2c(O)cc(O)cc2O[C@@H]1c1ccc(O)cc1`, in assay [2], the inhibition is 1.5%.
In the case of `O=C1C[C@@H](c2ccc(O)cc2)Oc2cc(O)c(-c3c(O)cc4c(c3O)C(=O)C[C@@H](c3ccc(O)cc3)O4)c(O)c21`, the inhibition was less than 30% in assay [6] and 22.1% in assay [2].
For `O=C1C[C@@H](c2ccc(O)cc2)Oc2cc(O)cc(O)c21`, in that order: 30% and 34.9%.
Regarding `O=C1c2c(O)cc(O)cc2O[C@@H](c2ccc(O)cc2)[C@@H]1c1c(O)cc(O)c2c(=O)cc(-c3ccc(O)cc3)oc12`, the inhibition in assay [6] was 30%; in assay [2], 45.3%.
Consider `O=c1cc(-c2ccc(O)c(-c3c(O)cc(O)c4c(=O)cc(-c5ccc(O)cc5)oc34)c2)oc2cc(O)cc(O)c12` [AMENTOFLAVONE], for which the IC50 in assay [1] is 119 µM; in assay [4], 35 µM. Further, the inhibition in assay [2] came out at 97.3%. Further, the half-maximal effective concentration (EC50) in assay [3] worked out at 94 µM. Also, the “Selectivity Index” value in assay [5] was less than 1.
Regarding `O=c1cc(-c2ccc(O)cc2)oc2cc(O)cc(O)c12` [APIGENIN], the IC50 in assay [1] came out at 443 µM. Further, in assay [2], the inhibition is 72%.
Regarding `O=c1cc(-c2ccc(Oc3c(O)cc4oc(-c5ccc(O)cc5)cc(=O)c4c3O)cc2)oc2cc(O)cc(O)c12` [HINOKIFLAVONE], the results for the 50% inhibitory concentration (IC50) in assay [1] and in assay [4] were 62 µM and 9 µM, respectively. Further, the inhibition in assay [2] was 89.9%. Also, a half-maximal response in assay [3] (EC50) required 4.1 µM. In addition, the “Selectivity Index” value in assay [5] is given as 2.2.
Consider `O=C1c2c(O)cc(O)cc2O[C@H](c2ccc(O)cc2)[C@H]1c1c(O)cc(O)c2c(=O)cc(-c3ccc(O)c(O)c3)oc12` [MORELLOFLAVONE], for which the IC50 in assay [1] amounted to 116 µM; in assay [4], 82 µM. Further, the inhibition in assay [2] was 99.2%. In addition, the EC50 in assay [3] was found to be 6.9 µM. For the same molecule, the “Selectivity Index” value in assay [5] turned out to be 12.
For `O=c1cc(-c2ccc(O)c(-c3c(O)cc4oc(-c5ccc(O)cc5)cc(=O)c4c3O)c2)oc2cc(O)cc(O)c12` [ROBUSTAFLAVONE], in that order: 65 µM, 77 µM, 91.4%, more than 100 µM and less than 1.
As for `Cc1cn([C@H]2C[C@H](N=[N+]=[N-])[C@@H](CO)O2)c(=O)[nH]c1=O` [ZIDOVUDINE], in assay [4], the concentration for half-maximal inhibition (IC50) was more than 100 µM. For the same molecule, the “Selectivity Index” value in assay [5] is recorded as more than 10.
